# Measurements from US7160989B2, “Antibodies that recognize and bind phosphorylated human androgen receptor and methods of using same” (New York University, priority 2003, dated 2007).
# Key:
# AR S213 phosphorylation = molecular target: T1, AR S213 phosphorylation (Homo sapiens, UniProt P10275); assay: Immunoblot of AR S213 phosphorylation in 293 cells transfected with wild type AR; type: cell-based
# T1 sequence (P10275 1-920): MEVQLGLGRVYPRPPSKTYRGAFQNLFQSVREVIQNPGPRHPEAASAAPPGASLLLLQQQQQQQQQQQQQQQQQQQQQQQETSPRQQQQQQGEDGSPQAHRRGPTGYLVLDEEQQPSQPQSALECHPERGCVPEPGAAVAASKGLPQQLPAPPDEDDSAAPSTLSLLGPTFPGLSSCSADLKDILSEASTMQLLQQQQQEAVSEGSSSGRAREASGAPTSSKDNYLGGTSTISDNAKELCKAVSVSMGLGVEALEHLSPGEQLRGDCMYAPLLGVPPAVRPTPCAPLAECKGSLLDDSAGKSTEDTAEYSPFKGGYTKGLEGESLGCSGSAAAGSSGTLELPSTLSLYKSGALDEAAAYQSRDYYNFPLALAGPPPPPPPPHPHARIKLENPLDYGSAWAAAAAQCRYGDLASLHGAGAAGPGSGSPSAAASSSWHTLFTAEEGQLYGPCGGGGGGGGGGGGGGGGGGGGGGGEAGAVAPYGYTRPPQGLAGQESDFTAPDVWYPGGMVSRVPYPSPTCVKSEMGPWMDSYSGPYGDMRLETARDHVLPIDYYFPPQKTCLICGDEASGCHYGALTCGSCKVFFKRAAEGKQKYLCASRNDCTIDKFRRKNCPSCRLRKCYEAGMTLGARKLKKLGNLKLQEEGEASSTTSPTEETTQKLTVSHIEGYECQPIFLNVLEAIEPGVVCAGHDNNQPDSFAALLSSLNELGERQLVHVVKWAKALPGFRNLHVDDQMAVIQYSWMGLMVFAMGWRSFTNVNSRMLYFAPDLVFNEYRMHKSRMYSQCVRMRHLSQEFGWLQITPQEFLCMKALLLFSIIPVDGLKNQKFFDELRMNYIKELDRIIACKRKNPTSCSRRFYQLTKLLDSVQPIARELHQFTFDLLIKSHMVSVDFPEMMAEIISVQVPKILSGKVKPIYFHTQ
# phospho-MAPK (P-MAPK) = assay: Immunoblot of phospho-MAPK in transfected 293 cells; type: cell-based, human; conditions: 293 cells treated with IGF-1; FIG. 4B
# P-S213 AR = P-S213 AR (Homo sapiens, UniProt P10275); conditions: 293 cells, wild type AR, treated with R1881; FIG. 3B
# Protocol: Preparation of nuclear and cytoplasmic lysates: Nuclear and cytoplasmic lysates were prepared according to (Lee et al., 1988). Cells (1×10^6 cells) were collected by centrifugation, swelled in a hypotonic buffer, and lysed by extruding the cells through a 25-gauge hypodermic needle. This homogenate was then centrifuged at 14,000 rpm for 5 min to pellet the nuclei, and the supernatant was saved as the cytoplasmic fraction. The proteins were extracted by re-suspension of the nuclear pellet in a high salt buffer and separation of debris by centrifugation. The resulting supernatant was retained as the nuclear fraction.
# To assess the subcellular localization of AR-P-S213, fractionation studies were conducted in the presence of R1881.
Compound,"AR phosphorylation with IGF-1 alone (AR S213 phosphorylation; 293 cells, IGF-1 alone 5 or 10 minutes or 2 hours, absence of R1881, FIG. 4B)",MAPK phosphorylation (phospho-MAPK (P-MAPK)),AR S213 phosphorylation at 10 nM (AR S213 phosphorylation),AR S213 phosphorylation at lower levels (AR S213 phosphorylation),"AR S213 phosphorylation, compound alone (AR S213 phosphorylation)",AR phosphorylation by hormone (AR S213 phosphorylation),Earliest time at which phosphorylation may occur (AR S213 phosphorylation),Time at which phosphorylation above background is obvious (AR S213 phosphorylation),Sub-cellular localization of P-S213 AR (P-S213 AR)
IGF-1: growth factor used to treat 293 cells; phosphorylates MAPK,does not result in AR phosphorylation,phosphorylated,,,,,,,
C[C@]1(O)CC[C@H]2[C@@H]3CCC4=CC(=O)CCC4=C3C=C[C@@]21C [R1881],,,robust phosphorylation,not at lower levels,phosphorylated,robust AR phosphorylation,≥ 10 min,60 min,predominantly nuclear
